In US7345078B2, “NF-κB inhibitors and uses thereof” (The Board of Trustees of Michigan State University, priority 2002, dated 2008):
Read-outs that look alike come from different tables or passages of the source. Marks after values point to notes of the source that are not given here.

Tests used:
CEM cells = settings: for sensitization of CEM cells towards camptothecin: camptothecin 0.1 μM
Experimental: Imidazolines 28-33 were evaluated for their ability to enhance the activity of camptothecin in CEM cells. Induction of apoptosis is the hallmark of most chemotherapeutic agents including camptothecin. The systematic disassembly of apoptotic cells is accomplished by active caspases (Thornberry et al., Nature 356: 768-774 (1992); Nicholson et al., Trends Biochem. Sci. 22: 299-306 (1997)). A standard apoptosis assay is Promega's APO-ONE homogeneous caspase-3/7 assay, which takes advantage of this caspase activity to directly quantify the induction of apoptosis in cells (Thornberry et al., Nature 356: 768-774 (1992); Nicholson et al., Trends Biochem. Sci. 22: 299-306 (1997)). According to the hypothesis that NF-κB inhibition should enhance the activity of chemotherapeutic agents via the inhibition of anti-apoptotic signaling pathway—thus enhancement of apoptosis—(Boland, Biochem Soc Trans 29: 674-678 (2001); Chiao et al., Cancer 95: 1696-1705 (2002)), we investigated the effects of the imidazolines using this caspase-3/7 assay. This assay quantifies the level of apoptotic cell death induced by camptothecin with and without the imidazolines and will establish the direct level of enhancement of apoptosis by camptothecin.
Induction of apoptosis using caspase 3/7 assay was as follows. CEM cells (CCRF-CEM); Amer. Type Culture Collection, Rockville, Md.) were grown in RPMI-1640 Media (Gibco-BRL, Rockville, Md.) supplemented with 10% fetal bovine serum, penicillin (614 ηg/mL), streptomycin (10 μg/mL) and hepes buffer, pH 7.2 at 37° C., 5% CO2. DMSO was used as the vector for all drugs and added in the control experiments. Cell cultures were treated with 1 μM, 0.1 μM or 10 nM of the imidazolines and allowed to incubate at 37° C., 5% CO2. An aliquote was transferred to a 96-well plate and mixed with an equal volume of Apo-ONE™ Homogenous Caspase-3/7 assay (Promega Corporation) reagent. The contents of the plate were gently mixed and allowed to incubate for 1 hour. The fluorescence of each well was then measured on a Molecular Imager FX Pro at 532 nm. All reported data was the average of two independent experiments unless otherwise indicated.

NF-κB [1] = target: T1, NF-κB (Homo sapiens, UniProt P19838+Q04206); assay: EMSA of nuclear NF-κB-DNA binding in nuclear extracts of PMA-stimulated Jurkat leukemia T-cells; format: cell-based; parameters: endogenous in cells; host or cells: Jurkat leukemia T-cells, clone E6-1 (ATCC), PMA-stimulated; nuclear extract
Experimental: (§1) All compounds were evaluated for their potential anti-inflammatory activity by examining the activity of NF-κB in vitro in nuclear extracts using the procedure from Breton and Charbot-Fletcher (Breton et al., J. Pharmacol. Exp. Ther. 282 459-466 (1997)). […] The Jurkat cells (1×10^7 cells/mL) are subsequently treated with various concentrations of imidazoline for 30 minutes at 37° C. followed by PMA stimulation (5.0 ng/mL) for an additional 5 hours. Nuclear extracts are incubated for 20 minutes with a double stranded Cy3 labeled NF-κB consensus oligonucleotide, 5′-[…]-3′ (SEQ ID NO:1) at room temperature. The crude mixture is loaded on a 5% non-denaturing polyacrylamide gel prepared in 1×Tris borate/EDTA buffer and electrophoresed at 200V for 2 hours. After electrophoresis the gel is analyzed using a phosphorimager (Biorad FX PLUS) for detection of the NF-κB-DNA binding.
EMSA assay for NF-κB-DNA binding was as follows. […] The Jurkat cells (1×10^6 cells/mL) were subsequently treated with various concentrations of the compounds for 30 minutes at 37° C. and 5% CO2 followed by PMA (50 ng/mL) and PHA ([…]) stimulation for an additional 30 minutes. The cells were harvested by centrifugation, washed in ice cold PBS and the nuclear extracts were prepared as previously described (Dignam, et al., Nucl. Acids Res 11: 1475-1489 (1983)). The protein concentration of the extracts was determined according to the Method of Bradford (1976) with BioRad reagents. Nuclear extracts are incubated for 20 minutes at room temperature with a double stranded Cy3 labeled NF-kB consensus oligonucleotide, 5′-[…] CCAGGC-3′ (SEQ ID NO:1). The binding mixture ([…]) contained 10 mM HEPES-NaOH pH 7.9, 4 mM tris-HCl, pH 7.9, 6.0 mM KCl, 1 mM EDTA, 1 mM DTT, 10% glycerol, 0.3 mg/mL bovide serum albumin and […] of poly (dI.dC). The binding mixtures ([…] of nuclear extract protein) were incubated for 20 minutes at room temrperature with 0.16 pmol of Cy3 labeled oligonucleotide. The mixture was loaded on a 4% polyacrylamide gel prepared in 1× tris borate/EDTA buffer and was electrophoresed at 200 V for 20 minutes. After electrophoresis the gel was analyzed using a phosphorimager (Biorad FX plus) for detection of the NF-kB—DNA binding.

RIF-1 murine tumor = assay: RIF-1 murine model of tumor growth delay; format: in vivo, mice; settings: for Days Delay (tumor growth delay) / Median (days to 4x) / Days to 4x (Ave ±SE) / T/C (ratio of Days to 4x of treated over untreated controls): IP, imidazoline 100 mg/kg, cis-platin 4 mg/kg, camptothecin 6 mg/kg; for Median (days to 4x): untreated 7.0; for Days to 4x (Ave ±SE): untreated 7.3 ± 0.6; for chemopotentiation of camptothecin: combinational treatment with camptothecin (CPT); for chemopotentiation of camptothecin / chemopotentiation of cis-platin: RIF-1 tumors in mice; for chemopotentiation of cis-platin: combinational treatment with cis-platin (CDDP)
Experimental: Tumor cells were injected, bilaterally, into the backs of mice. When tumors reached 100 mm^3, the mice were treated with an intraperitoneal injection of the compound. Tumor volumes were measured 3 times a week until they reached 4 times the size they were on the first treatment day. Data is recorded as “Days to 4×’ or ratio of ‘Days to 4×” of the treated over untreated controls.

NF-κB [2] = target: T1, NF-κB; assay: IC50 values in Mammalian Jurkat cells Leukemia T cells; format: cell-based; parameters: endogenous in cells; host or cells: Jurkat leukemia T-cells, clone E6-1 (ATCC), PMA-stimulated; nuclear extract; settings: concentration at which 50% of the protein/enzyme is inhibited in cells
Experimental: as §1
IC50 values in Mammalian Jurkat cells Leukemia T cells: IC50 value is defined as the concentration of compounds at which 50% of the protein/enzyme is inhibited in cells (Table 3).

NF-κB [3] = target: T1, NF-κB; assay: EMSA of camptothecin activated NF-κB in CEM leukemia T-cells; format: cell-based; parameters: endogenous in cells; nuclear extract; settings: camptothecin 10 μM to 10 nM, 2 hours
Experimental: CEM cells were incubated with and without varying concentrations of camptothecin (CPT). Positive controls included PMA/PHA activation (FIG. 11, lane 2). Lane 3 included a positive control using PMA/PHA activation followed by the treatment of the extract with a NF-κB p65 antibody to unambiguously identify the NF-κB/DNA complex.
CEM cells were treated with various concentration of imidazoline 32, 30 minutes prior to activation by camptothecin (0.1 μM). […] Control lanes include: DNA only (lane 1), PMA/PHA activated NF-κB (lane 2), PMA/PHA activated NF-κB treated with a p65 antibody, which provide a supershift (lane 3) and the unactivated control (lane 4).
EMSA assay for NF-κB-DNA binding was as follows. […] The cells were harvested by centrifugation, washed in ice cold PBS and the nuclear extracts were prepared as previously described (Dignam, et al., Nucl. Acids Res 11: 1475-1489 (1983)). The protein concentration of the extracts was determined according to the Method of Bradford (1976) with BioRad reagents. Nuclear extracts are incubated for 20 minutes at room temperature with a double stranded Cy3 labeled NF-kB consensus oligonucleotide, 5′-[sequence] […] The binding mixture (25 mL) contained 10 mM HEPES-NaOH pH 7.9, 4 mM tris-HCl, pH 7.9, 6.0 mM KCl, 1 mM EDTA, 1 mM DTT, 10% glycerol, 0.3 mg/mL bovide serum albumin and 1 mg of poly (dI.dC). The binding mixtures (10 mg of nuclear extract protein) were incubated for 20 minutes at room temrperature with 0.16 pmol of Cy3 labeled oligonucleotide. The mixture was loaded on a 4% polyacrylamide gel prepared in 1× tris borate/EDTA buffer and was electrophoresed at 200 V for 20 minutes. After electrophoresis the gel was analyzed using a phosphorimager (Biorad FX plus) for detection of the NF-kB—DNA binding.

T1 sequence (Q04206 whole entry): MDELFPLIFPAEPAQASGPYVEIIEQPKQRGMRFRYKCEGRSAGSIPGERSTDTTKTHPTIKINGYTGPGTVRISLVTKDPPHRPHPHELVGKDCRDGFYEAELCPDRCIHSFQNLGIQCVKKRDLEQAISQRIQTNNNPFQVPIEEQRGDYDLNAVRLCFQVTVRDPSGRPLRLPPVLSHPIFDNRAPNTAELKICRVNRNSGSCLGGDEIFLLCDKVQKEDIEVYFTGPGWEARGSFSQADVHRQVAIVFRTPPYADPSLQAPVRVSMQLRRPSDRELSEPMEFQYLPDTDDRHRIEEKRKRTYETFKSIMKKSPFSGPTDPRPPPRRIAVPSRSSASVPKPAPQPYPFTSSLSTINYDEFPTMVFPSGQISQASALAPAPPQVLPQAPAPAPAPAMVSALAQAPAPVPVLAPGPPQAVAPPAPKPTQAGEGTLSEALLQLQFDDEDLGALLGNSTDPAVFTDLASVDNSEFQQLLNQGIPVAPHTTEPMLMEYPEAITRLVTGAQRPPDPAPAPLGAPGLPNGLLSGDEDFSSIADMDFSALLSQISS
T1 sequence (P19838 1-433 limits assumed): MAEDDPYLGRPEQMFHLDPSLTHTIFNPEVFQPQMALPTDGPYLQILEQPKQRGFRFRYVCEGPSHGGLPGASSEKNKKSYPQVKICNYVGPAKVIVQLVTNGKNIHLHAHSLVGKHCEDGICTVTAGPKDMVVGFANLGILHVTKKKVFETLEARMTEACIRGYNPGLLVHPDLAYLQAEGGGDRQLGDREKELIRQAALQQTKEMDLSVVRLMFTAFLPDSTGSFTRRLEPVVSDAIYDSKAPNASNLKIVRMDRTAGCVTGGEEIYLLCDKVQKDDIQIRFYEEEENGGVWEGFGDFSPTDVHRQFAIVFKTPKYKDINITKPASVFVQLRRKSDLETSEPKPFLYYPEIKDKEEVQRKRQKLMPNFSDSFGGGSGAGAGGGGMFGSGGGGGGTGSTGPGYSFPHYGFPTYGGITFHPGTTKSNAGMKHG

C[C@]1(C(=O)O)N=C(c2ccccc2)N(Cc2ccccc2)[C@H]1c1ccncc1 (racemic) [Compound 31, dl-(4S,5S)-1-Benzyl-4-methyl-2-phenyl-5-pyridin-4yl-4,5-dihydro-1H-imidazole-4-carboxylic acid]
Apoptosis (±S.D.) (CEM cells): 1.18 ± 0.00^b
sensitization of CEM cells towards camptothecin (CEM cells; 0.01 μM imidazoline): sensitization
sensitization of CEM cells towards camptothecin (CEM cells; 0.1 μM imidazoline): sensitization
sensitization of CEM cells towards camptothecin (CEM cells; 1 μM imidazoline): sensitization

CCOC(=O)C1(C)N=C(c2ccccc2)N(Cc2ccccc2)C1c1ccccc1 (racemic) [Compound 10, Dl-(3S,4S)-1-Benzyl-4-methyl-2,5-diphenyl-4,5-dihydro-1H-imidazole-4-carboxylic acid ethyl ester]
% inhibition of NF-κB (NF-κB [1]; compound 0.1 μM (100 nM)): 22%

C[C@]1(C(=O)O)N=C(c2ccccc2)N(Cc2ccccc2)[C@H]1c1ccccc1 (racemic) [Compound 1, Dl-(3S,4S)-1-Benzyl-4-methyl-2,5-diphenyl-4,5-dihydro-1H-imidazole-4-carboxylic acid]
Days Delay (tumor growth delay) (RIF-1 murine tumor): -0.57 days
Median (days to 4x) (RIF-1 murine tumor): 6.4 days
Days to 4x (Ave ±SE) (RIF-1 murine tumor): 6.5 ± 0.3 days
chemopotentiation of camptothecin (RIF-1 murine tumor): no significant chemopotentiation
chemopotentiation of cis-platin (RIF-1 murine tumor): no significant chemopotentiation
inhibition at 1 µM (NF-κB [1]; compound 1.0 μM): 19%
IC50 (NF-κB [2]): 1950 nM

COc1ccc([C@@H]2N(Cc3ccccc3)C(c3ccccc3)=N[C@]2(C)C(=O)O)cc1 (racemic) [Compound 2, Dl-(3S,4S)-1-Benzyl-5-(4-methoxyphenyl)-4-methyl-2-phenyl-4,5-dihydro-1H-imidazole-4-carboxylic acid]
inhibition at 1 µM (NF-κB [1]; compound 1.0 μM): 68%
IC50 (NF-κB [2]): 40 nM

C[C@]1(C(=O)O)N=C(c2ccccc2)N(c2ccc(F)cc2)[C@H]1c1ccccc1 (racemic) [Compound 3, Dl-(3S,4S)-1-(4-Fluorophenyl)-4-methyl-2,5-diphenyl-4,5-dihydro-1H-imidazole-4-carboxylic acid]
Days Delay (tumor growth delay) (RIF-1 murine tumor): -0.20 days
Median (days to 4x) (RIF-1 murine tumor): 6.8 days
Days to 4x (Ave ±SE) (RIF-1 murine tumor): 7.6 ± 1.0 days
chemopotentiation of camptothecin (RIF-1 murine tumor): no significant chemopotentiation
chemopotentiation of cis-platin (RIF-1 murine tumor): no significant chemopotentiation
inhibition at 1 µM (NF-κB [1]; compound 1.0 μM): 35%
IC50 (NF-κB [2]): 6.5 nM

O=C(O)C1(Cc2c[nH]c3ccccc23)N=C(c2ccccc2)N(Cc2ccccc2)C1c1ccccc1 (racemic) [Compound 5, Dl-(3S,4S)-1-Benzyl-4-(1H-indol-3-ylmethyl)-2,5-diphenyl-4,5-dihydro-1H-imidazole-4-carboxylic acid]
% inhibition of NF-κB (NF-κB [1]; compound 1.0 μM): 0%

CCOC(=O)[C@H]1N(c2ccc(F)cc2)C(c2ccccc2)=N[C@]1(C)C(=O)O (racemic) [Compound 8, Dl-(3S,4S)-1-(4-Fluorophenyl)-4-methyl-2-phenyl-4,5-dihydro-1H-imidazole-4,5-dicarboxylic acid 5-ethyl ester]
% inhibition of NF-κB (NF-κB [1]; compound 0.1 μM (100 nM)): 88%
% inhibition of NF-κB (NF-κB [1]; compound 1.0 μM): 94%

CCOC(=O)[C@H]1N(c2ccc(F)cc2)C(c2ccccc2)=N[C@]1(C)C(=O)O (racemic) [Compound 29, dl-(4S,5S)-1-(4-Fluorophenyl)-4-methyl-2-phenyl-4,5-dihydro-1H-imidazole-4,5-dicarboxylic acid 5-ethyl ester]
Apoptosis (±S.D.) (CEM cells; Compound 1.0 μm alone, T-cells, 48 hour period, cells only = 1.00 (normalized)): 0.95 ± 0.24

N.N.[Cl][Pt][Cl] [Cis-platin, cis-platin, reference compound]
Days Delay (tumor growth delay) (RIF-1 murine tumor): 0.82 days
T/C (ratio of Days to 4x of treated over untreated controls) (RIF-1 murine tumor): 1.1
Median (days to 4x) (RIF-1 murine tumor): 7.8 days
Days to 4x (Ave ±SE) (RIF-1 murine tumor): 8.1 ± 0.4 days

CC[C@@]1(O)C(=O)OCc2c1cc1n(c2=O)Cc2cc3ccccc3nc2-1 [Camptothecin, camptothecin, reference compound]
Days Delay (tumor growth delay) (RIF-1 murine tumor): 3.79 days
T/C (ratio of Days to 4x of treated over untreated controls) (RIF-1 murine tumor): 1.4
Median (days to 4x) (RIF-1 murine tumor): 10.8 days
Days to 4x (Ave ±SE) (RIF-1 murine tumor): 10.3 ± 0.6 days
Fold enhancement of camptothecin (0.1 μM) after 48 hours (CEM cells; CEM cells, imidazoline 1.0 μM + CPT 0.1 μM versus CPT 0.1 μM): 1.00
NF-κB/DNA binding due to NF-κB activation (NF-κB [3]): significant amount of NF-κB/DNA binding

CCOC(=O)[C@@]1(C)N=C(c2ccccc2)N(Cc2ccccc2)[C@H]1c1ccncc1 (racemic) [Compound 9, Dl-(3S,4S)-1-Benzyl-4-methyl-2-phenyl-5-pyridin-4-yl-4,5-dihydro-1H-imidazole-4-carboxylic acid ethyl ester]
% inhibition of NF-κB (NF-κB [1]; compound 0.1 μM (100 nM), 0.1 µM): 71%

CCOC(=O)[C@H]1N(c2ccc(F)cc2)C(c2ccccc2)=N[C@@]1(C(=O)O)c1ccccc1 (racemic) [Compound 30, dl-(4S,5S)-1-(4-Fluorophenyl)-2,4-diphenyl-4,5-dihydro-1H-imidazole-4,5-dicarboxylic acid 5-ethyl ester]
Apoptosis (±S.D.) (CEM cells): 1.18 ± 0.20
sensitization of CEM cells towards camptothecin (CEM cells; 0.01 μM imidazoline): sensitization
sensitization of CEM cells towards camptothecin (CEM cells; 0.1 μM imidazoline): sensitization
sensitization of CEM cells towards camptothecin (CEM cells; 1 μM imidazoline): sensitization
